Experimental data as given in patent US5189050A, “Fermentation analogs of Virginiamycin M1 to treat panic and anxiety disorder” (Merck & Co., Inc., priority 1991, dated 1993).

Experiments:
stomach gastrin receptor = conditions: cited from earlier work
CCK-A receptors = conditions: cited from earlier work
CCK-B receptors = conditions: cited from earlier work
Pancreatic CCK Receptor = target: T1, Pancreatic CCK Receptor (Rattus norvegicus, UniProt P30551); test: Pancreatic cholecystokinin receptor binding (125I-CCK-8, rat pancreas membranes); conditions: for effect on the 125I-CCK receptor binding assay: added protease inhibitors; for IC50: Pancreatic CCK Receptor Binding, rat pancreas, 125I-CCK-8, 37° C., 30 minutes
T1 construct: homogenzing a gram of fresh rat pancreas tissue; from tissue; host or cells: fresh rat pancreas membranes
T1 sequence (P30551 1-444): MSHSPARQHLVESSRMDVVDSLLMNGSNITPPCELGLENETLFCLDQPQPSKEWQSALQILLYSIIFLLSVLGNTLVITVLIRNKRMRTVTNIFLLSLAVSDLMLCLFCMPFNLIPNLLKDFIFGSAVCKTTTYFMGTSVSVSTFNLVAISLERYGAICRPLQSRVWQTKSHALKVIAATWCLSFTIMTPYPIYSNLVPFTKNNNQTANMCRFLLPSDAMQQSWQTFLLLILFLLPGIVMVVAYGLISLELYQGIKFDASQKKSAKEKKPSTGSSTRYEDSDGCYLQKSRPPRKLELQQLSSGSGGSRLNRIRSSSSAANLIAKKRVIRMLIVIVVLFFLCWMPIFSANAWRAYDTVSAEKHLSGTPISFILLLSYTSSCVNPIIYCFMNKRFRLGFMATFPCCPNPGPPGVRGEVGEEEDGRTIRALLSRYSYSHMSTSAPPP
Description: Pancreatic Cholecystokinin Receptor Binding Assay
Radiolabeled CCK-8 was purchased from New England Nuclear as ^125 I-CCK-8. Receptor binding was performed according to Innis and Snyder Proc. Natl. Acad. Sci., 77, 6917 (1980), with the minor modification of adding the additional protease inhibitors, phenylmethane sulfonyl fluoride (PMSF) and o-phenanthroline, which have no effect on the ^125 I-CCK receptor binding assay. All assays were performed in triplicate. Pancreatic receptor membranes were prepared by homogenzing a gram of fresh rat pancreas tissue in 30 ml TRIS-HCl (50 mM), pH 7.7 using a Brinkman polytron PT10 (Brinkman). The homogenate was washed twice and collected by centrifugation at 48,000× g at 4° C. for 10 minutes. The membranes were resuspended in assay buffer consisting of 5 mM dithiothieitol, 0.1 mM bacitiacin, 5 mM MgCl2 "H2 O, 0.2% heat denatured BSA, 1.2 mM PMSF and 0.5 mM O-phenanthroline at a concentration of 100 ml per gram of pancreas. […] The reaction mixtures were mixed briefly and placed in a 37° C. water bath with gentle shaking for 30 minutes. The reaction mixtures were then diluted with 4 ml of ice-cold TRIS buffer, pH 7.7, containing 1 mg/ml bovine serum albumin and immediately filtered in Watman G F/B filters. The filters were washed with 3×4 ml of the same buffer and the radioactivity associated with the filters was counted in a Beckman 5500 gamma counter. Broths were prepared by adding two volumes of acetone to original broth; supernatants were freeze dried after centrifugation at 1500 g for 10 minutes. The dried samples were then brought up in methanol/H2 O (1:1) and ready for assay.

gram-positive bacteria = conditions: cited from earlier work
[1] = crude rat brain synaptosomal fraction (title of cited paper); cited from earlier work

Compound: CSCC[C@H](NC(=O)[C@@H](N)Cc1c[nH]c2ccccc12)C(=O)N[C@@H](CC(=O)O)C(=O)N[C@@H](Cc1ccccc1)C(N)=O [CCK-4]
- potency at stomach gastrin receptor (stomach gastrin receptor): minimum fully potent CCK sequence
- affinity for CCK-A receptors (CCK-A receptors): lower affinity
- affinity for CCK-B receptors (CCK-B receptors): high affinity

Compound: O=S(=O)(F)Cc1ccccc1 [phenylmethane sulfonyl fluoride (PMSF), phenylmethane sulfonyl fluoride]
- effect on the 125I-CCK receptor binding assay (Pancreatic CCK Receptor): no effect

Compound: gastrin
- affinity for CCK-A receptors (CCK-A receptors): lower affinity

Compound: CC1=C\[C@@H](O)CC(=O)Cc2nc(co2)C(=O)N2CCC=C2C(=O)O[C@H](C(C)C)[C@H](C)/C=C/C(=O)NC\C=C\1 [Virginiamycin M1]
- IC50 (Pancreatic CCK Receptor): > 100 µM
- antibacterial specificity and action (gram-positive bacteria): generally specific for gram-positive bacteria and prevent cell multiplication

Compound: CC1=C\C=C\C(=O)Cc2nc(co2)C(=O)N2CCC=C2C(=O)O[C@H](C(C)C)[C@H](C)/C=C/C(=O)NC\C=C\1 [Compound III]
- IC50 (Pancreatic CCK Receptor): > 10 µM

Compound: CSCC[C@H](NC(=O)[C@H](Cc1ccc(O)cc1)NC(=O)[C@@H](N)CC(=O)O)C(=O)NCC(=O)N[C@@H](Cc1c[nH]c2ccccc12)C(=O)N[C@@H](CCSC)C(=O)N[C@@H](CC(=O)O)C(=O)N[C@@H](Cc1ccccc1)C(N)=O [CCK-8d]
- affinity for CCK-A receptors (CCK-A receptors): lower affinity

Compound: c1cnc2c(c1)ccc1cccnc12 [o-phenanthroline]
- effect on the 125I-CCK receptor binding assay (Pancreatic CCK Receptor): no effect

Compound: CSCC[C@H](NC(=O)[C@H](Cc1c[nH]c2ccccc12)NC(=O)CCNC(=O)OC(C)(C)C)C(=O)N[C@@H](CC(=O)O)C(=O)N[C@@H](Cc1ccccc1)C(N)=O [pentagastrin]
- affinity for CCK-B receptors (CCK-B receptors): high affinity

Compound: CSCC[C@H](NC(=O)[C@H](Cc1ccc(OS(=O)(=O)O)cc1)NC(=O)[C@@H](N)CC(=O)O)C(=O)NCC(=O)N[C@@H](Cc1c[nH]c2ccccc12)C(=O)N[C@@H](CCSC)C(=O)N[C@@H](CC(=O)O)C(=O)N[C@@H](Cc1ccccc1)C(N)=O [CCK-8s, H-Asp-Tyr(SO3 H)-Met-Gly-Trp-Met-Asp-Phe-NH2]
- half-life [1]: less than 1 hour
- affinity for CCK-A receptors (CCK-A receptors): high affinity
- affinity for CCK-B receptors (CCK-B receptors): high affinity

Compound: CC1=C\C=C\[C@@H](O)Cc2nc(co2)C(=O)N2CCC=C2C(=O)O[C@H](C(C)C)[C@H](C)/C=C/C(=O)NC\C=C\1 [Compound I]
- IC50 (Pancreatic CCK Receptor): > 10 µM

Compound: CC1=C\C=C\[C@H](O)Cc2nc(co2)C(=O)N2CCC=C2C(=O)O[C@H](C(C)C)[C@H](C)/C=C/C(=O)NC\C=C\1 [Compound II]
- IC50 (Pancreatic CCK Receptor): > 10 µM
